Consider 3 molecules from ChEMBL document CHEMBL1144271, “Carbonic anhydrase inhibitors: synthesis and inhibition of cytosolic/tumor-associated carbonic anhydrase isozymes I, II, and IX with bis-sulfamates” (Bioorg Med Chem Lett, 2005).

The structures appear in SMILES notation.

One test deals with Carbonic anhydrase 9 (Homo sapiens, UniProt Q16790).
In the next test the target is Carbonic anhydrase 1 (Homo sapiens, UniProt P00915).
Carbonic anhydrase 1, sequence (P00915 whole entry): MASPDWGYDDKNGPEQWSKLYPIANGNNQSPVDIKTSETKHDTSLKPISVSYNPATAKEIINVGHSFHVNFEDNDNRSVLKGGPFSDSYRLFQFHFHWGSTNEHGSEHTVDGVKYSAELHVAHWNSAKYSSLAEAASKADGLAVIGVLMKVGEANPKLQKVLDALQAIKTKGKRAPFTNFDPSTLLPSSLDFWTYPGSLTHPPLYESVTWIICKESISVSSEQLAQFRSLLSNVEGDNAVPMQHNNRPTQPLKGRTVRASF

Usually Ki stands for the dissociation constant of the complex between target and ligand, obtained from inhibition or displacement. A high value points to a looser hold on the target. `NS(=O)(=O)OCCCCCCCOS(N)(=O)=O` displayed a Ki at Carbonic anhydrase 9 of 10.1 nM. At Carbonic anhydrase 1, `C[C@]12CC[C@@H]3c4ccc(OS(N)(=O)=O)cc4CC[C@H]3[C@@H]1CC[C@@H]2OS(N)(=O)=O` had a Ki of 6000 nM. On to `NS(=O)(=O)OCc1ccc(COS(N)(=O)=O)cc1`, for which the Ki was 61.6 nM on Carbonic anhydrase 9 and more than 20 nM on Carbonic anhydrase 1.
